According to PubChem BioAssay (NCI):
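The compound was tested at five concentrations on cells cultured in 96-well plates, with a 48-hour exposure period. Here, GI50 denotes the concentration required for 50% inhibition of growth. TGI is the concentration that stops growth completely.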

Assays:
Assay in all cases: inhibition of tumour cell growth, NCI panel, 48 h
BT-549 breast = test system: BT-549 breast
SF-539 CNS = test system: SF-539 CNS
T-47D breast = test system: T-47D breast
NCI-H226 lung = test system: NCI-H226 lung
MOLT-4 leukemia = test system: MOLT-4 leukemia
A498 renal = test system: A498 renal
HS 578T breast = test system: HS 578T breast
NCI/ADR-RES ovarian = test system: NCI/ADR-RES ovarian
MDA-MB-231 breast = test system: MDA-MB-231 breast
HT29 colon = test system: HT29 colon
SF-295 CNS = test system: SF-295 CNS
U251 CNS = test system: U251 CNS
SNB-75 CNS = test system: SNB-75 CNS
UACC-62 melanoma = test system: UACC-62 melanoma
SW-620 colon = test system: SW-620 colon
EKVX NSCLC = test system: EKVX NSCLC
SK-OV-3 ovarian = test system: SK-OV-3 ovarian
M14 melanoma = test system: M14 melanoma
SK-MEL-5 melanoma = test system: SK-MEL-5 melanoma
SF-268 CNS = test system: SF-268 CNS
IGROV1 ovarian = test system: IGROV1 ovarian
LOX IMVI melanoma = test system: LOX IMVI melanoma
SK-MEL-28 melanoma = test system: SK-MEL-28 melanoma
A549 NSCLC = test system: A549 NSCLC
CCRF-CEM leukemia = test system: CCRF-CEM leukemia
DU-145 prostate = test system: DU-145 prostate
MALME-3M melanoma = test system: MALME-3M melanoma
COLO 205 colon = test system: COLO 205 colon
HL-60(TB) leukemia = test system: HL-60(TB) leukemia

**Q.** How did the TGI (BT-549 breast) turn out when `COc1ccc2c(c1)[C@@]1(C)CCC3c4ccc(O)cc4CCC3C1C2` (some centres not stated) was run?
**A.** Its TGI is 40.7 µM.

**Q.** What about the GI50 (SF-539 CNS) of the same molecule?
**A.** The GI50 was 20.3 µM.

**Q.** What about the TGI (SF-539 CNS) of the same molecule?
**A.** Its TGI is 38.9 µM.

**Q.** What about the GI50 (T-47D breast) of the same molecule?
**A.** The GI50 was 11.7 µM.

**Q.** And the TGI (T-47D breast)?
**A.** Its TGI is 26.8 µM.

**Q.** And the GI50 (NCI-H226 lung)?
**A.** Its GI50 is 18.7 µM.

**Q.** And the TGI (NCI-H226 lung)?
**A.** The TGI was 38.2 µM.

**Q.** And the GI50 (MOLT-4 leukemia)?
**A.** The GI50 was 17.8 µM.

**Q.** And the TGI (MOLT-4 leukemia)?
**A.** Its TGI is 64.2 µM.

**Q.** And the GI50 (A498 renal)?
**A.** Its GI50 is 18.2 µM.

**Q.** What about the TGI (A498 renal) of the same molecule?
**A.** Its TGI is 33.3 µM.

**Q.** What about the GI50 (HS 578T breast) of the same molecule?
**A.** The GI50 was 19.4 µM.

**Q.** What about the TGI (HS 578T breast) of the same molecule?
**A.** The TGI was 39.3 µM.

**Q.** And the GI50 (NCI/ADR-RES ovarian)?
**A.** Its GI50 is 14.4 µM.

**Q.** And the TGI (NCI/ADR-RES ovarian)?
**A.** Its TGI is 29.3 µM.

**Q.** And the GI50 (MDA-MB-231 breast)?
**A.** The GI50 was 13.8 µM.

**Q.** What about the TGI (MDA-MB-231 breast) of the same molecule?
**A.** Its TGI is 27.8 µM.

**Q.** And the GI50 (HT29 colon)?
**A.** The GI50 was 3.96 µM.

**Q.** What about the TGI (HT29 colon) of the same molecule?
**A.** The TGI was 17.5 µM.

**Q.** And the GI50 (SF-295 CNS)?
**A.** Its GI50 is 17.3 µM.

**Q.** And the TGI (SF-295 CNS)?
**A.** Its TGI is 33.8 µM.

**Q.** What about the GI50 (U251 CNS) of the same molecule?
**A.** Its GI50 is 15.6 µM.

**Q.** What about the TGI (U251 CNS) of the same molecule?
**A.** Its TGI is 29.9 µM.

**Q.** What about the GI50 (SNB-75 CNS) of the same molecule?
**A.** Its GI50 is 16.6 µM.

**Q.** And the TGI (SNB-75 CNS)?
**A.** Its TGI is 30.9 µM.

**Q.** And the GI50 (UACC-62 melanoma)?
**A.** The GI50 was 17.6 µM.

**Q.** What about the TGI (UACC-62 melanoma) of the same molecule?
**A.** Its TGI is 32.9 µM.

**Q.** What about the GI50 (SW-620 colon) of the same molecule?
**A.** The GI50 was 16.9 µM.

**Q.** What about the TGI (SW-620 colon) of the same molecule?
**A.** The TGI was 36.1 µM.

**Q.** And the GI50 (EKVX NSCLC)?
**A.** The GI50 was 17.6 µM.

**Q.** And the TGI (EKVX NSCLC)?
**A.** The TGI was 33.2 µM.

**Q.** What about the GI50 (SK-OV-3 ovarian) of the same molecule?
**A.** The GI50 was 15.7 µM.

**Q.** What about the TGI (SK-OV-3 ovarian) of the same molecule?
**A.** Its TGI is 29.6 µM.

**Q.** And the GI50 (M14 melanoma)?
**A.** The GI50 was 18.9 µM.

**Q.** What about the TGI (M14 melanoma) of the same molecule?
**A.** Its TGI is 33.5 µM.

**Q.** And the GI50 (SK-MEL-5 melanoma)?
**A.** The GI50 was 17 µM.

**Q.** And the TGI (SK-MEL-5 melanoma)?
**A.** The TGI was 33.1 µM.

**Q.** And the GI50 (SF-268 CNS)?
**A.** The GI50 was 16.3 µM.

**Q.** And the TGI (SF-268 CNS)?
**A.** Its TGI is 32.6 µM.

**Q.** And the GI50 (IGROV1 ovarian)?
**A.** Its GI50 is 20.6 µM.

**Q.** What about the TGI (IGROV1 ovarian) of the same molecule?
**A.** Its TGI is 48.2 µM.

**Q.** And the GI50 (LOX IMVI melanoma)?
**A.** Its GI50 is 11 µM.

**Q.** What about the TGI (LOX IMVI melanoma) of the same molecule?
**A.** Its TGI is 24.2 µM.

**Q.** What about the GI50 (SK-MEL-28 melanoma) of the same molecule?
**A.** The GI50 was 15.2 µM.

**Q.** What about the TGI (SK-MEL-28 melanoma) of the same molecule?
**A.** Its TGI is 30.3 µM.

**Q.** And the GI50 (A549 NSCLC)?
**A.** The GI50 was 12.6 µM.

**Q.** And the TGI (A549 NSCLC)?
**A.** The TGI was 32.2 µM.

**Q.** And the GI50 (CCRF-CEM leukemia)?
**A.** The GI50 was 12.8 µM.

**Q.** And the TGI (CCRF-CEM leukemia)?
**A.** Its TGI is 45.8 µM.

**Q.** What about the GI50 (DU-145 prostate) of the same molecule?
**A.** Its GI50 is 17.6 µM.

**Q.** And the TGI (DU-145 prostate)?
**A.** Its TGI is 39.7 µM.

**Q.** What about the GI50 (MALME-3M melanoma) of the same molecule?
**A.** Its GI50 is 18.7 µM.

**Q.** And the TGI (MALME-3M melanoma)?
**A.** Its TGI is 34.8 µM.

**Q.** And the GI50 (COLO 205 colon)?
**A.** Its GI50 is 14.7 µM.

**Q.** And the TGI (COLO 205 colon)?
**A.** Its TGI is 31 µM.

**Q.** What about the GI50 (HL-60(TB) leukemia) of the same molecule?
**A.** Its GI50 is 18.1 µM.

**Q.** And the TGI (HL-60(TB) leukemia)?
**A.** The TGI was 39.1 µM.
